Read-outs that look alike come from different tables or passages of the source.
Columns and labels:
ACK1 = biological target: T1, ACK1 (Homo sapiens, UniProt Q07912); experiment: single-point (1 uM) inhibition assay (ProQinase Kinase Profiler); assay type: biochemical; details: 1 uM compound, read-out: % residual activity class (FIG. 3)
T1 construct: purchased ProQinase

ABL1 = biological target: T2, ABL1 (Homo sapiens, UniProt P00519); experiment: biochemical; details: 1 uM compound, read-out: % residual activity class (FIG. 3)
T2 construct: purchased ProQinase

EPHB2 = biological target: T3, EPHB2 (Homo sapiens, UniProt P29323); experiment: single-point (1 uM) inhibition assay (ProQinase Kinase Profiler); assay type: biochemical; details: read-out: % residual activity class (FIG. 3)
T3 construct: purchased ProQinase

CSK = biological target: T4, CSK (Homo sapiens, UniProt P41240); experiment: as above; assay type: biochemical; details: 1 uM compound, read-out: % residual activity class (FIG. 3)
T4 construct: purchased ProQinase

BLK = biological target: T5, BLK (Homo sapiens, UniProt P51451); experiment: as above; assay type: biochemical; details: 1 uM compound, read-out: % residual activity class (FIG. 3)
T5 construct: purchased ProQinase

MDCK-wild type cells = details: dog
NLK = biological target: T6, NLK (Homo sapiens, UniProt Q9UBE8); experiment: single-point (1 uM) inhibition assay (ProQinase Kinase Profiler); assay type: biochemical; details: 1 uM compound, read-out: % residual activity class (FIG. 3)
T6 construct: purchased ProQinase

EPHB1 = biological target: T7, EPHB1 (Homo sapiens, UniProt P54762); experiment: as above; assay type: biochemical
T7 construct: purchased ProQinase
T7 sequence (P54762 18-984): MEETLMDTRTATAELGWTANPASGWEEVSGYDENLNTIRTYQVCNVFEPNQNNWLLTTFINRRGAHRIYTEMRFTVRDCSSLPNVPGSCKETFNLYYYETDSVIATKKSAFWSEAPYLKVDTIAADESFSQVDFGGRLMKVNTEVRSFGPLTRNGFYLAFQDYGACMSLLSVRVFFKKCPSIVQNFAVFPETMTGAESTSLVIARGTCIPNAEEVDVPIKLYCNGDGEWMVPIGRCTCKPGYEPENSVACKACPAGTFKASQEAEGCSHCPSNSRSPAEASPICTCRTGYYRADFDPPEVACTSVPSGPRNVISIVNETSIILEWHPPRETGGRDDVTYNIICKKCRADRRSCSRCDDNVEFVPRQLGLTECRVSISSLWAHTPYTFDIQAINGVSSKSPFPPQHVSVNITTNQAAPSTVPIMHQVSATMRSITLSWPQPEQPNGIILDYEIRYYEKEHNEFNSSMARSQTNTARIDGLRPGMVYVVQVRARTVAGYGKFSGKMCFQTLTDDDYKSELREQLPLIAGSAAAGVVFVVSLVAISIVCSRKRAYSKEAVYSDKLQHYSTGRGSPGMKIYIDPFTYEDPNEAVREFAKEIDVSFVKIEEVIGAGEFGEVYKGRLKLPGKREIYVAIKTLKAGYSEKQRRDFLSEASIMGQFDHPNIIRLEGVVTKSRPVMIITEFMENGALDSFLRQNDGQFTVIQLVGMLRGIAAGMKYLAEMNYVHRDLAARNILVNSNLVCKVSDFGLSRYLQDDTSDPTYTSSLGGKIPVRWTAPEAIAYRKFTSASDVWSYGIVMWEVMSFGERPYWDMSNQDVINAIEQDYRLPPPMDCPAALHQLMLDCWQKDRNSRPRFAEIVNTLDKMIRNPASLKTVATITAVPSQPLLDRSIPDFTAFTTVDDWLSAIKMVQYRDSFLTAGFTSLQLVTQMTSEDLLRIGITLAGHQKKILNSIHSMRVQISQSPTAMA

RIPK2 = biological target: T8, RIPK2 (Homo sapiens, UniProt O43353); experiment: as above; assay type: biochemical; details: 1 uM compound, read-out: % residual activity class (FIG. 3)
T8 construct: purchased ProQinase

ACV-R1B = biological target: T9, ACV-R1B (Homo sapiens, UniProt P36896); experiment: as above; assay type: biochemical; details: read-out: % residual activity class (FIG. 3)
T9 construct: purchased ProQinase

FRK = biological target: T10, FRK (Homo sapiens, UniProt P42685); experiment: as above; assay type: biochemical; details: 1 uM compound, read-out: % residual activity class (FIG. 3)
T10 construct: purchased ProQinase

TEC = biological target: T11, TEC (Homo sapiens, UniProt P42680); experiment: as above; assay type: biochemical; details: 1 uM compound, read-out: % residual activity class (FIG. 3)
T11 construct: purchased ProQinase
T11 sequence (P42680 whole entry): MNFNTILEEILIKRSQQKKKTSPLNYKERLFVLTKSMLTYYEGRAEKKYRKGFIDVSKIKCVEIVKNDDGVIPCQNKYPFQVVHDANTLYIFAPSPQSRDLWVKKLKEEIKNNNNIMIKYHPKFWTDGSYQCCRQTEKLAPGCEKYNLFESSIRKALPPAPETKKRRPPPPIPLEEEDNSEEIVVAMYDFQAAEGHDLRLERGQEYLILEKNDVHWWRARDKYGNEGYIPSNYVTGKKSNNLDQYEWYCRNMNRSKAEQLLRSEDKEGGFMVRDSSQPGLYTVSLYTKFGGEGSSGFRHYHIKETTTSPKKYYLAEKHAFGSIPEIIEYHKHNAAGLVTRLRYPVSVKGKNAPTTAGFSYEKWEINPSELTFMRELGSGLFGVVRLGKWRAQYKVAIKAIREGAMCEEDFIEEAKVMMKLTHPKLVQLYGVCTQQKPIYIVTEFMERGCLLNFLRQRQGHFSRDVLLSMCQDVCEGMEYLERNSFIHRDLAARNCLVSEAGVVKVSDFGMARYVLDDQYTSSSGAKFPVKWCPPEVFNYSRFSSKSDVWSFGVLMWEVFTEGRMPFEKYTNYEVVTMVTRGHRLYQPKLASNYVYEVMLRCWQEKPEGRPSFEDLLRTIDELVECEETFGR

PDGFR-alpha = biological target: T12, PDGFR-alpha (Homo sapiens, UniProt P16234); experiment: as above; assay type: biochemical; details: read-out: % residual activity class (FIG. 3)
T12 construct: purchased ProQinase

SRMS = biological target: T13, SRMS (Homo sapiens, UniProt Q9H3Y6); experiment: as above; assay type: biochemical; details: 1 uM compound, read-out: % residual activity class (FIG. 3)
T13 construct: purchased ProQinase

BMX = biological target: T14, BMX (Homo sapiens, UniProt P51813); experiment: as above; assay type: biochemical; details: 1 uM compound, read-out: % residual activity class (FIG. 3)
T14 construct: purchased ProQinase

RET = biological target: T15, RET (Homo sapiens, UniProt P07949); experiment: as above; assay type: biochemical
T15 construct: purchased ProQinase, Freiburg, Germany (Kinase Profiler panel)
T15 sequence (P07949 29-1114): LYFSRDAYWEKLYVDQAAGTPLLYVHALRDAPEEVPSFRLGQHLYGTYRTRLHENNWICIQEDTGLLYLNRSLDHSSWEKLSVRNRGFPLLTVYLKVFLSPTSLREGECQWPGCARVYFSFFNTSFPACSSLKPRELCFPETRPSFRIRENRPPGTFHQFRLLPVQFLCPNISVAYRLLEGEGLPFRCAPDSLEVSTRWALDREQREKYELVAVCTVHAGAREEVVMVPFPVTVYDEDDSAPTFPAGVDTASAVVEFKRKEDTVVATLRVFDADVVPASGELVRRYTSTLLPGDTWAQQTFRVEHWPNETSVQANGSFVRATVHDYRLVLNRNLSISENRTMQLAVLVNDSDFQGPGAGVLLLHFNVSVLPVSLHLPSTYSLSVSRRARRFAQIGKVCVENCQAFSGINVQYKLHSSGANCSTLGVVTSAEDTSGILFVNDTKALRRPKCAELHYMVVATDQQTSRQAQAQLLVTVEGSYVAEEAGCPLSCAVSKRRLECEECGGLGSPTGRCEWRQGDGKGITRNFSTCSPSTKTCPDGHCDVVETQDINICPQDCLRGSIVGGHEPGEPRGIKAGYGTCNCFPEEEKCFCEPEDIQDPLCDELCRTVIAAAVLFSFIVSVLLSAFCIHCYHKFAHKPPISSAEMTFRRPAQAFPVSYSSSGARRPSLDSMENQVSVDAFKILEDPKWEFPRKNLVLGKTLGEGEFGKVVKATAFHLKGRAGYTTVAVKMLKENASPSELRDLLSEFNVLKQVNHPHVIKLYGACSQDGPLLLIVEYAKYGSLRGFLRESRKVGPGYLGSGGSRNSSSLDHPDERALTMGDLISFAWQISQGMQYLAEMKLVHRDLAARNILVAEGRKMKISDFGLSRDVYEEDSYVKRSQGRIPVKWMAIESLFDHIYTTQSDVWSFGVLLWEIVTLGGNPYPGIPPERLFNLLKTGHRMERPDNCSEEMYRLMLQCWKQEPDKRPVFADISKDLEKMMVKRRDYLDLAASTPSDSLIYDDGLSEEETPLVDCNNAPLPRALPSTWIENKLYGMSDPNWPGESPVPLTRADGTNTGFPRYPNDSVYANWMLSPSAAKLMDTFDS

SIK3 = biological target: T16, SIK3 (Homo sapiens, UniProt Q9Y2K2); experiment: as above; assay type: biochemical; details: read-out: % residual activity class (FIG. 3)
T16 construct: purchased ProQinase

ABL2 = biological target: T17, ABL2 (Homo sapiens, UniProt P42684); experiment: as above; assay type: biochemical; details: 1 uM compound, read-out: % residual activity class (FIG. 3)
T17 construct: purchased ProQinase

LYN = biological target: T18, LYN (Homo sapiens, UniProt P07948); experiment: as above; assay type: biochemical; details: 1 uM compound, read-out: % residual activity class (FIG. 3)
T18 construct: purchased ProQinase

FYN = FYN (Homo sapiens, UniProt P06241); experiment: as above; details: read-out: % residual activity class (FIG. 3)
TGFB-R1 = biological target: T19, TGFB-R1 (Homo sapiens, UniProt P36897); experiment: as above; assay type: biochemical; details: 1 uM compound, read-out: % residual activity class (FIG. 3)
T19 construct: purchased ProQinase

SIK2 = biological target: T20, SIK2 (Homo sapiens, UniProt Q9H0K1); experiment: as above; assay type: biochemical; details: read-out: % residual activity class (FIG. 3)
T20 construct: purchased ProQinase

B-RAF = biological target: T21, B-RAF (Homo sapiens, UniProt P15056); experiment: as above; assay type: biochemical
T21 construct: purchased ProQinase

ACV-RL1 = biological target: T22, ACV-RL1 (Homo sapiens, UniProt P37023); experiment: as above; assay type: biochemical; details: 1 uM compound, read-out: % residual activity class (FIG. 3)
T22 construct: purchased ProQinase

ACV-R1 = biological target: T23, ACV-R1 (Homo sapiens, UniProt Q04771); experiment: as above; assay type: biochemical; details: read-out: % residual activity class (FIG. 3)
T23 construct: purchased ProQinase

EPHA2 = biological target: T24, EPHA2 (Homo sapiens, UniProt P29317); experiment: as above; assay type: biochemical
T24 construct: purchased ProQinase

BRK = biological target: T25, BRK (Homo sapiens, UniProt Q13882); experiment: as above; assay type: biochemical; details: 1 uM compound, read-out: % residual activity class (FIG. 3)
T25 construct: purchased ProQinase

PDGFR-beta = biological target: T26, PDGFR-beta (Homo sapiens, UniProt P09619); experiment: biochemical
T26 construct: purchased ProQinase
T26 sequence (P09619 33-1106): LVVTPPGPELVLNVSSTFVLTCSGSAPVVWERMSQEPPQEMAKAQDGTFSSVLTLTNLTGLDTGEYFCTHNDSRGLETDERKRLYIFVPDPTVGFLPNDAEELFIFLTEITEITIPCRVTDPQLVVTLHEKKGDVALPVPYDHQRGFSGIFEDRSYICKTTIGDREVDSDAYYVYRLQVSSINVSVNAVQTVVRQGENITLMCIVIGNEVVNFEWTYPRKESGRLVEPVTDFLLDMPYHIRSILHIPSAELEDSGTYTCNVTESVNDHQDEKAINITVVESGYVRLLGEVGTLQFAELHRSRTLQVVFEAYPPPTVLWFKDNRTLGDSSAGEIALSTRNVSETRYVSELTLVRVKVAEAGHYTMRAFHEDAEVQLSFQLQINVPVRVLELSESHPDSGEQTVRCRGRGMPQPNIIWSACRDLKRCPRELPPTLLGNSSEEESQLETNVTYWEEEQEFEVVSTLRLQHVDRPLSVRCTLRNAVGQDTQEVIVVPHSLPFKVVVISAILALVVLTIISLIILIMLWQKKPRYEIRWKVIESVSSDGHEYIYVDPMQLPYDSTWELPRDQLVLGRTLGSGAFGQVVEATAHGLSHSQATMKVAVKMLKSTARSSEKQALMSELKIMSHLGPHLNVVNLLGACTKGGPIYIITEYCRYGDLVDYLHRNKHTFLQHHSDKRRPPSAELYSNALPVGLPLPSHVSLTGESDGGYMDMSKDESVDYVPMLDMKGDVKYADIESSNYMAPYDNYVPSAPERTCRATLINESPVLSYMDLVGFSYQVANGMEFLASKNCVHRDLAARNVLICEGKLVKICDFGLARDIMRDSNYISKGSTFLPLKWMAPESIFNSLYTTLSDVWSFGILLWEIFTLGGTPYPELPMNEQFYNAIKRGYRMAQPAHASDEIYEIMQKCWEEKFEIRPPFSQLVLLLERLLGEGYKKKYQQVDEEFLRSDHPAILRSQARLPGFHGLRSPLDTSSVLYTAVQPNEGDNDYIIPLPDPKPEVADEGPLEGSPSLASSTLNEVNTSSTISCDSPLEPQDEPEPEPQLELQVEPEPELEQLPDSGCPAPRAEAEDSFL

FGR = biological target: T27, FGR (Homo sapiens, UniProt P09769); experiment: single-point (1 uM) inhibition assay (ProQinase Kinase Profiler); assay type: biochemical; details: 1 uM compound, read-out: % residual activity class (FIG. 3)
T27 construct: purchased ProQinase

MDCK-MDR1 cells = details: dog
p38-alpha = biological target: T28, p38-alpha (Homo sapiens, UniProt Q16539); experiment: single-point (1 uM) inhibition assay (ProQinase Kinase Profiler); assay type: biochemical; details: read-out: % residual activity class (FIG. 3)
T28 construct: purchased ProQinase
T28 sequence (Q16539 whole entry): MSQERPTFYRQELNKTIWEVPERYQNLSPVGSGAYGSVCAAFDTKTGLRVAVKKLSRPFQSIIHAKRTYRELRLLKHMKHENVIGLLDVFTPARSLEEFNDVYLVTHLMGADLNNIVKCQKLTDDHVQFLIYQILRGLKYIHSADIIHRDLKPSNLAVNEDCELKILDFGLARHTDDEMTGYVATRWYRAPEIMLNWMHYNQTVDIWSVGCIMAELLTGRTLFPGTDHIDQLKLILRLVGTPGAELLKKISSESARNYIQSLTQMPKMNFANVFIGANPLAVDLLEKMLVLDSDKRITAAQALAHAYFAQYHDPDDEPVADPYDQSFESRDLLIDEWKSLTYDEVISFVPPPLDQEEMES

SIK1 = biological target: T29, SIK1 (Homo sapiens, UniProt P57059); experiment: as above; assay type: biochemical; details: read-out: % residual activity class (FIG. 3)
T29 construct: purchased ProQinase

HCK = biological target: T30, HCK (Homo sapiens, UniProt P08631); experiment: as above; assay type: biochemical; details: 1 uM compound, read-out: % residual activity class (FIG. 3)
T30 construct: purchased ProQinase

EPHA3 = biological target: T31, EPHA3 (Homo sapiens, UniProt P29320); experiment: as above; assay type: biochemical
T31 construct: purchased ProQinase
T31 sequence (P29320 21-983): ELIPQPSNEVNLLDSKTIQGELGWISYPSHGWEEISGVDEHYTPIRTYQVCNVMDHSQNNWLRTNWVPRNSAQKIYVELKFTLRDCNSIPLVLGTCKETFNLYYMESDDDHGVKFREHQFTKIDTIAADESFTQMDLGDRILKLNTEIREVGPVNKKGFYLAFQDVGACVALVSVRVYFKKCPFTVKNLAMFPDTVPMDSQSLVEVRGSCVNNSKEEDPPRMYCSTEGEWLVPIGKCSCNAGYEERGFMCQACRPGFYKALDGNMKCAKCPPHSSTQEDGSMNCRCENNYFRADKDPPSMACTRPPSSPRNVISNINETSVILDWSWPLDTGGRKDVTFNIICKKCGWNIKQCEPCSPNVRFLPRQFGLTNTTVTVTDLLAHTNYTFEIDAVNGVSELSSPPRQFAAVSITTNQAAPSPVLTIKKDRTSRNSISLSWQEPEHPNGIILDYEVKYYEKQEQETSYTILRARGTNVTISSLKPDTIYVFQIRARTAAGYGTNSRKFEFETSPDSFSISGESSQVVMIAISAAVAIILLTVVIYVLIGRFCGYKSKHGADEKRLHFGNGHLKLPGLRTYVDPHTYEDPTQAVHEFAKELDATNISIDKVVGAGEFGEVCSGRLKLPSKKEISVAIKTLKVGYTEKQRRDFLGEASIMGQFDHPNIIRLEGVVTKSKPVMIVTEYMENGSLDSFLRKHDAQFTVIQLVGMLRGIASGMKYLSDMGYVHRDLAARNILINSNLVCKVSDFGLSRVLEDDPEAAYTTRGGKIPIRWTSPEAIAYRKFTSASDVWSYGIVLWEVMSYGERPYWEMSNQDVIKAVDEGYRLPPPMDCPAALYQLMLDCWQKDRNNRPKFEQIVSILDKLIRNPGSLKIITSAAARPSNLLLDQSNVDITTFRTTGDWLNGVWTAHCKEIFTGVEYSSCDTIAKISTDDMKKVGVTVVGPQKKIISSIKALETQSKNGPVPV

TXK = biological target: T32, TXK (Homo sapiens, UniProt P42681); experiment: as above; assay type: biochemical; details: 1 uM compound, read-out: % residual activity class (FIG. 3)
T32 construct: purchased ProQinase

EPHA5 = biological target: T33, EPHA5 (Homo sapiens, UniProt P54756); experiment: as above; assay type: biochemical
T33 construct: purchased ProQinase

MAP4K5 = biological target: T34, MAP4K5 (Homo sapiens, UniProt Q9Y4K4); experiment: as above; assay type: biochemical; details: read-out: % residual activity class (FIG. 3)
T34 construct: purchased ProQinase

ZAK = biological target: T35, ZAK (Homo sapiens, UniProt Q9NYL2); experiment: as above; assay type: biochemical; details: 1 uM compound, read-out: % residual activity class (FIG. 3)
T35 construct: purchased ProQinase

DDR2 = biological target: T36, DDR2 (Homo sapiens, UniProt Q16832); experiment: as above; assay type: biochemical; details: 1 uM compound, read-out: % residual activity class (FIG. 3)
T36 construct: purchased ProQinase, Freiburg, Germany (Kinase Profiler panel)

[1] = mouse liver microsomal stability; assay type: in vitro ADME
ERBB2 = ERBB2 (Homo sapiens, UniProt P04626); experiment: single-point (1 uM) inhibition assay (ProQinase Kinase Profiler); assay type: biochemical; details: read-out: % residual activity class (FIG. 3)
[2] = read-out: % residual activity class (FIG. 3)
[3] = read-out: Residual activity (%) at 1 uM
[4] = read-out: Residual activity (%) at 1 uM, RET
[5] = PDGFR-beta, 1 uM compound, read-out: % residual activity class (FIG. 3)

Cc1nc(Nc2ncc(C(=O)Nc3c(Cl)ccnc3C)s2)cc(N2CCN(CCO)CC2)n1 [Compound B3, N-(4-chloro-2-methylpyridin-3-yl)-2-((6-(4-(2-hydroxyethyl)piperazin-1-yl)-2-methylpyrimidin-4-yl)amino)thiazole-5-carboxamide]
remaining activity at 1 µM (ACK1): < 25% | remaining activity at 1 µM (ABL1): < 25% | remaining activity at 1 µM (EPHB2): < 25% | remaining activity at 1 µM (CSK): < 25% | remaining activity at 1 µM (BLK): < 25% | Mean recovery B > A (MDCK-wild type cells): 120% | remaining activity at 1 µM (NLK): 25 to 50% | remaining activity at 1 µM (EPHB1; [2]): < 25% | remaining activity at 1 µM (EPHB1; [3]): 0% | remaining activity at 1 µM (RIPK2): < 25% | remaining activity at 1 µM (ACV-R1B): 25 to 50% | remaining activity at 1 µM (FRK): < 25% | remaining activity at 1 µM (TEC): < 25% | remaining activity at 1 µM (PDGFR-alpha): < 25% | remaining activity at 1 µM (SRMS): 25 to 50% | remaining activity at 1 µM (BMX): < 25% | remaining activity at 1 µM (RET; [4]): ~100% | remaining activity at 1 µM (SIK3): < 25% | remaining activity at 1 µM (ABL2): < 25% | remaining activity at 1 µM (LYN): < 25% | remaining activity at 1 µM (FYN): < 25% | remaining activity at 1 µM (TGFB-R1): 25 to 50% | remaining activity at 1 µM (SIK2): < 25% | remaining activity at 1 µM (B-RAF; [2]): 25 to 50% | remaining activity at 1 µM (B-RAF; [3]): ~50% | remaining activity at 1 µM (ACV-RL1): 25 to 50% | remaining activity at 1 µM (ACV-R1): 25 to 50% | remaining activity at 1 µM (EPHA2; [2]): < 25% | remaining activity at 1 µM (EPHA2; [3]): 0% | remaining activity at 1 µM (BRK): < 25% | remaining activity at 1 µM (PDGFR-beta; [5]): < 25% | remaining activity at 1 µM (PDGFR-beta; [3]): 6% | remaining activity at 1 µM (FGR): < 25% | Mean recovery A > B (MDCK-MDR1 cells): 93% | remaining activity at 1 µM (p38-alpha): 25 to 50% | remaining activity at 1 µM (SIK1): < 25% | remaining activity at 1 µM (HCK): < 25% | remaining activity at 1 µM (EPHA3; [2]): < 25% | remaining activity at 1 µM (EPHA3; [3]): 0% | remaining activity at 1 µM (TXK): < 25% | remaining activity at 1 µM (EPHA5; [2]): < 25% | remaining activity at 1 µM (EPHA5; [3]): 1% | remaining activity at 1 µM (MAP4K5): 25 to 50% | remaining activity at 1 µM (ZAK): < 25% | remaining activity at 1 µM (DDR2): < 25% | Half-life [1]: 1.03 h

Cc1nc(Nc2ncc(C(=O)Nc3c(C)cccc3Cl)s2)cc(N2CCN(CCO)CC2)n1 [Compound A8, N-(2-chloro-6-methylphenyl)-2-((6-(4-(2-hydroxyethyl)piperazin-1-yl)-2-methylpyrimidin-4-yl)amino)thiazole-5-carboxamide, reference compound]
remaining activity at 1 µM (ACK1): < 25% | remaining activity at 1 µM (EPHB2; EPHB2, 1 uM compound): < 25% | remaining activity at 1 µM (CSK): < 25% | remaining activity at 1 µM (BLK): < 25% | Mean Papp A > B (MDCK-wild type cells): 21 | remaining activity at 1 µM (NLK): < 25% | remaining activity at 1 µM (EPHB1; [2]): < 25% | remaining activity at 1 µM (RIPK2): < 25% | remaining activity at 1 µM (ACV-R1B; ACV-R1B, 1 uM compound): < 25% | remaining activity at 1 µM (FRK): < 25% | remaining activity at 1 µM (TEC): < 25% | remaining activity at 1 µM (PDGFR-alpha): < 25% | remaining activity at 1 µM (SRMS): < 25% | Residual activity (%) at 1 uM (RET; RET, 1 µM): 39% | remaining activity at 1 µM (RET; RET, 1 uM compound, read-out: % residual activity class (FIG. 3)): 25 to 50% | remaining activity at 1 µM (RET; [4]): < 40% | remaining activity at 1 µM (SIK3; SIK3, 1 uM compound): < 25% | remaining activity at 1 µM (ABL2): < 25% | remaining activity at 1 µM (LYN): < 25% | remaining activity at 1 µM (FYN): < 25% | remaining activity at 1 µM (SIK2; SIK2, 1 uM compound): < 25% | remaining activity at 1 µM (ACV-RL1): < 25% | remaining activity at 1 µM (ACV-R1; ACV-R1, 1 uM compound): < 25% | remaining activity at 1 µM (PDGFR-beta; [5]): < 25% | remaining activity at 1 µM (PDGFR-beta; [3]): 2% | remaining activity at 1 µM (FGR): < 25% | Mean Papp A > B (MDCK-MDR1 cells): 2.4 | remaining activity at 1 µM (p38-alpha; p38-alpha, 1 uM compound): < 25% | remaining activity at 1 µM (SIK1; SIK1, 1 uM compound): < 25% | remaining activity at 1 µM (HCK): < 25% | remaining activity at 1 µM (EPHA3; EPHA3, 1 uM compound, read-out: % residual activity class (FIG. 3)): < 25% | remaining activity at 1 µM (TXK): < 25% | remaining activity at 1 µM (ERBB2): 25 to 50% | remaining activity at 1 µM (MAP4K5; MAP4K5, 1 uM compound): < 25% | remaining activity at 1 µM (ZAK): < 25% | remaining activity at 1 µM (DDR2): < 25%

Source: patent US12139480B2, “5-thiazolecarboxamide kinase inhibitor and uses thereof” (iOmx Therapeutics AG, priority 2018, dated 2024)
